These results are taken from publication PMC8162404, “Proteomimetic surface fragments distinguish targets by function” (Chemical Science, 2020).

Test [1] deals with Gal-1. Also on record: method as in PMID 15476813. The conditions noted are these: native ligand used as competitor; cited from earlier work.
Test [2] concerns the target T1, S100B (Homo sapiens, UniProt P04271).
T1 construct: made in house; host or cells: Escherichia coli BL21(DE3)
T1 sequence (P04271 1-92): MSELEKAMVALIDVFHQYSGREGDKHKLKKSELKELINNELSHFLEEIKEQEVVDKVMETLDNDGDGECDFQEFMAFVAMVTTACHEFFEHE
Further details: method as in PMID 26527685. Particulars: native ligand used as competitor; cited from earlier work.

The target in test [3] is T2, S100A4 (Homo sapiens, UniProt P26447).
T2 construct: made in house; host or cells: Escherichia coli BL21(DE3)
Also on record: method as in PMID 26527685. Particulars: native ligand used as competitor; cited from earlier work.

The target of test [4] is T2, S100A4. As to the kind of experiment: Pull-down assay with immobilized protein and LSM libraries. In kind it is binding. Particulars: H14 library; 1:1 binding assumed; read-out: Surface mapping KD (apparent). The gist of the method:
(§1)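 Buffers were HEPES pH 7.4 with 150 mM NaCl, plus 1 mM TCEP and 1 mM CaCl2 (50 mM HEPES) for S100A4 and S100B, 1 mM TCEP for Gal-1, and no additive for RecQ-WH. Immobilized protein at 64 µM was equilibrated 30 min with the LSM sublibrary, and unbound probes were measured by LC-MS.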

Test [5] addresses T1, S100B. Described as above. Type of test: binding. Particulars: H14 library; 1:1 binding assumed; read-out: Surface mapping KD (apparent). The gist of the method:
as §1

Test [6] has as its target T3, Gal-1 (Homo sapiens, UniProt P09382).
T3 construct: made in house; host or cells: E. coli BL21(DE3)
Described as above. Particulars: H14 library; 1:1 binding assumed; read-out: Surface mapping KD (apparent). In kind it is binding. A digest of the protocol: as §1

The target of test [7] is T4, RecQ-WH (Escherichia coli, UniProt P15043).
T4 construct: coding for residues 408– 523 of E. coli RecQ; made in house; host or cells: E. coli BL21(DE3)
The experiment in a line: Competition pull-down with native ligand SSB-Ct8. Type of test: binding, E. coli. The conditions noted are these: H14 library; competitor peptide 200 µM; read-out: Surface mapping KD (apparent), competition.

The target in test [8] is T3, Gal-1. As to the kind of experiment: Competition pull-down with lactose. The conditions noted are these: H14 library; lactose 10 mM; read-out: Surface mapping KD (apparent), competition. Type of test: binding. A digest of the protocol:
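His6-tagged proteins immobilized on Co-NTA resin at 64 µM final with 64-member LSM foldamer sublibraries (1 M each, as printed) in pH 7.4 HEPES/NaCl buffers (Ca2+/TCEP per target), 30 min RT; competitor peptides 200 µM final, lactose 10 mM for Gal-1. Bound fractions from LC-MS loss vs protein-free resin; KD assuming 1:1 binding.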

In test [9] the target is T4, RecQ-WH. As to the kind of experiment: Pull-down assay with immobilized protein and LSM libraries. Further details: species or system E. coli. Particulars: H14 library; 1:1 binding assumed; read-out: Surface mapping KD (apparent). A digest of the protocol: as §1
Test [10] has as its target T5, CaM (Bos taurus, UniProt P62157).
T5 construct: made in house; host or cells: E. coli BL21 (DE3)
The experiment in a line: Competition pull-down with native ligand TRPV1-Ct15. Type of test: binding, bovine. Particulars: H14 library; competitor peptide 200 µM; read-out: Surface mapping KD (apparent), competition.

In test [11] the target is T5, CaM. The experiment in a line: Pull-down assay with immobilized protein and LSM libraries. In kind it is binding, bovine. Particulars: H14 library; 1:2 stoichiometry assumed; read-out: Surface mapping KD (apparent). The gist of the method:
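CaM buffer was 20 mM HEPES pH 7.4, 150 mM NaCl, 5 mM CaCl2. LSM sublibrary members ([…]) incubated 30 min, RT, with equimolar His-tagged protein on Co-NTA resin. HPLC-MS measured unbound probes; bound fraction relative to resin-only background gave dissociation constants.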

The target of test [12] is T2, S100A4. The experiment in a line: Competition pull-down with native ligand NMIIA (1893–1923). In kind it is binding. The conditions noted are these: H14 library; competitor peptide 200 µM; read-out: Surface mapping KD (apparent), competition.
In test [13] the target is T1, S100B. As to the kind of experiment: Competition pull-down with native ligand RSK1 (689–735). Type of test: binding. The conditions noted are these: H14 library; competitor peptide 200 µM; read-out: Surface mapping KD (apparent), competition.

Read-outs that look alike come from different tables or passages of the source.

T2 sequence (P26447 whole entry): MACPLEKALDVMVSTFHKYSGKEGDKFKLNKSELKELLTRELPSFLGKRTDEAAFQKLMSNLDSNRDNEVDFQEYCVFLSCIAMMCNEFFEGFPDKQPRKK
T4 sequence (P15043 408-523): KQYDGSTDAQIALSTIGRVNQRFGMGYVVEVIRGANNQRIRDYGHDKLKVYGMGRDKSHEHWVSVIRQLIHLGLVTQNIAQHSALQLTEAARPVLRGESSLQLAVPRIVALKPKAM
T3 sequence (P09382 whole entry): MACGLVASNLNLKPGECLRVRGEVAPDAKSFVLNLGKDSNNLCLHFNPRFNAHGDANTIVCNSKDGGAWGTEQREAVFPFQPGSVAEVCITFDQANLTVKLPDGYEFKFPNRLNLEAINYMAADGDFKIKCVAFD

As to `OC[C@H]1O[C@@H](O[C@H]2[C@H](O)[C@@H](O)C(O)O[C@@H]2CO)[C@H](O)[C@@H](O)[C@H]1O` (mixture of isomers) [Lactose], the Kd at Gal-1 [1] was 409 µM.

“RSK1 (689–735): peptide motif of ribosomal S6 kinase 1, native ligand competitor for S100B (QDLQLVKGAMAATYSALNSSKPTPQLKPIESSILAQRRVRKLPSTTL; UniProt Q15418 689-735, looked up, fragment)”: the Kd in the test with S100B [2] was 1.8 µM.

Regarding “NMIIA (1893–1923): peptide motif of non-muscle myosin IIA, native ligand competitor for S100A4”, the Kd in the test with S100A4 [3] is 0.007 ± 0.001 µM.

With `NC(=O)[C@H]1CCCC[C@@H]1NC(=O)C[C@H](Cc1c[nH]c2ccccc12)NC(=O)[C@H]1CCCC[C@@H]1NC(=O)[C@H]1CCCC[C@@H]1NC(=O)C[C@H](Cc1ccc(O)cc1)NC(=O)[C@H]1CCCC[C@@H]1N` [H14 YW], the Kd on S100A4 [4] came to 25 µM; at S100B [5], 42 µM; at Gal-1 [6], 115 µM; at RecQ-WH [7] it was 164 µM; on Gal-1 [8], 112 µM; at RecQ-WH [9] it was 46 µM. The Kd at CaM [10] turned out to be 404 µM; at CaM [11] it was 2 µM; on S100A4 [12] it was 391 µM; at S100B [13] it was 38 µM.
